According to patent EP0728012B1, “NOVEL GnRH ANALOGUES WITH ANTITUMOUR EFFECTS AND PHARMACEUTICAL COMPOSITIONS THEREOF” (Lovas, Sandor, priority 1994, dated 1996):

Columns and labels:
Ishikawa = conditions: 30 µM active substance, conjugate, treated once
PC3 = assay: In vitro inhibition of cell proliferation (Example 19); format: cell-based, human; conditions: 30 µM active substance, conjugate, treated once
In short: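 Starting from 400,000 cells per dish during exponential growth, cultures received GnRH antagonist analogues or lamprey GnRH-III at 1 to 50 µM every two days. Cell count determined on day 7.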

MCF-7 xenograft = assay: In vivo antitumour effect on MCF-7 xenograft in immunosuppressed mice; parameters: species or system CBA/Ca mice; conditions: for Tumour volume as control (%): conjugates 1 x 50 µg; for Inhibition % (tumour growth): daily s.c.
Protocol: The immunosuppression of mice was carried out by using the method of Steel et al. [Br. J. Cancer, 37, 224-230 (1978)]. Immunosuppression and xeno-transplantation
CBA-Ca female mice of about 6 weeks old were thymectomized and then, after one week, they were irradiated with 60Co (whole body irradiation; the lethal dose is 9.5 Gray). Within 24 hours 3 to 5 x 10^5 myelocytes were injected into the animals. Beneath the skin of the immunosuppressed mice 2 x 10^7 tumour cells or, in the case of later passages, […] were implanted. […] The treatment with steroid hormone was stopped by at least one week before beginning the investigation.
In the case of MCF-7 tumours (xenografts) the examinations were carried out with passages being in the phase of the 37th and 38th, respectively, transplantations.
In the case of mice bearing MCF-7 xenograft, the treatment was begun in the 4th week following xeno-transplantation.
Recent investigations have begun on 28 animals bearing MCF-7 xenograft and on 28 animals bearing MDA-MB-231 xenograft. On animals bearing MCF-7 tumour the treatment was commenced in the 5th week following xeno-transplantation; the tumour volume was 205 to 225 mm^3. On animals bearing MDA-MB-231 tumour, the treatment was started in the 4th week after xeno-transplantation with a tumour volume of 140 to 150 mm^3. […] The control groups were daily treated with physiological saline s.c. (Each treated group consisting of 7 animals).

MDA-MB-231 xenograft = assay: In vivo antitumour effect on MDA-MB-231 xenograft in immunosuppressed mice; parameters: species or system CBA/Ca mice
In short: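 Female CBA-Ca mice thymectomized, whole-body 60Co-irradiated a week later, given 3 to 5 x 10^5 myelocytes within 24 h, then implanted s.c. with MDA-MB-231 cells or tumour pieces. Treatment began in week 4 or 5 post-implant at 140-150 mm^3 or 0.165-0.194 cm^3; 7 animals per group, controls daily s.c. saline.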

MXT mouse mammary tumour = assay: In vivo antitumour effect on mice bearing MXT mouse mammary tumour; parameters: species or system CBA/Ca mice
[1] = test system: cytosolic progesterone receptor (cPgR); conditions: animals bearing MCF-7 xenografts
[2] = after 6 week treatment, xenograft not given
[3] = MDA-MB-231 xenograft, after 9 week treatment, 100 µg daily s.c.
[4] = Table V, treatment week 2, 1x100 µg daily s.c.
[5] = Table V, treatment week 2, conjugates 1x50 µg daily s.c.
[6] = Table V, treatment week 6, 1x100 µg daily s.c.
[7] = Table V, treatment week 6, MI-1892 2x25 µg, conjugates 1x50 µg daily s.c.
[8] = week 0, daily s.c., 1 x 100 µg series
[9] = week 0, daily s.c., P-GFLG-1544 1 x 50 µg, P-GFLG-1892 1 x 75 µg
[10] = week 1, daily s.c., 1 x 100 µg series
[11] = week 1, daily s.c., P-GFLG-1544 1 x 50 µg, P-GFLG-1892 1 x 75 µg
[12] = week 2, daily s.c., 1 x 100 µg series
[13] = week 2, daily s.c., P-GFLG-1544 1 x 50 µg, P-GFLG-1892 1 x 75 µg
[14] = week 3, daily s.c., 1 x 100 µg series
[15] = week 3, daily s.c., P-GFLG-1544 1 x 50 µg, P-GFLG-1892 1 x 75 µg
[16] = week 4, daily s.c., 1 x 100 µg series
[17] = week 4, daily s.c., P-GFLG-1544 1 x 50 µg, P-GFLG-1892 1 x 75 µg
[18] = week 5, daily s.c., 1 x 100 µg series
[19] = week 5, daily s.c., P-GFLG-1544 1 x 50 µg, P-GFLG-1892 1 x 75 µg
[20] = week 6, daily s.c., 1 x 100 µg series
[21] = week 6, daily s.c., P-GFLG-1544 1 x 50 µg, P-GFLG-1892 1 x 75 µg
[22] = week 7, daily s.c., 1 x 100 µg series
[23] = MXT mouse mammary tumour, Treatment weeks: 13, 1x75 µg daily s.c.
[24] = MXT mouse mammary tumour, Treatment weeks: 20, 1x75 µg daily s.c.

## Ac-D-Trp^1,3,D-Cpa^2,{Lys(n-poly-(N-vinylpyrrolidone-co-maleic acid)-Gly-Phe-Leu-Gly]}^6,D-Ala^10-GnRH [P-GFLG-1544]
Ishikawa
  % Inhibition of cell division (proliferation): 95%
PC3
  % Inhibition of cell division (proliferation): 68.5%
MCF-7 xenograft; MCF-7 xenograft, first study, conjugates 150 µg in every 3rd day, P-GFLG-OH daily s.c.
  rate of tumour growth: not influenced
MCF-7 xenograft; MCF-7 xenograft, first study, end of 4th week, MI-1892 2 x 25 µg daily, conjugates 50 µg daily once
  decrease in the tumour volume in comparison to controls: 30%
MCF-7 xenograft; MCF-7 xenograft, 4th week of treatment
  tumour volume: 1.806 cm^3
MCF-7 xenograft; MCF-7 xenograft, 6th week
  tumour-free animals: a tumour-free animal was found
MCF-7 xenograft; MCF-7 xenograft, treatment week 2
  Tumour volume as control (%): 70%
MCF-7 xenograft; MCF-7 xenograft, treatment week 2, listed as 6. P-GFLG-1544
  Inhibition % (tumour growth): 30%
MCF-7 xenograft; MCF-7 xenograft, treatment week 4
  Inhibition % (tumour growth): 49%
MCF-7 xenograft; MCF-7 xenograft, treatment week 6, MI-1892 2 x 25 µg
  Tumour volume as control (%): 51%
MCF-7 xenograft; MCF-7 xenograft, treatment week 6, listed as 6. P-GFLG-1544
  Inhibition % (tumour growth): 49%
MCF-7 xenograft; [2]
  Volume (cm^3) of tumours: 3.502 ± 0.321 cm^3
  Weight (g) of tumours: 4.8 ± 0.8 g
MDA-MB-231 xenograft; MDA-MB-231 xenograft, 100 µg daily s.c., 6th week of treatment
  animals that became tumour-free: 1 animals from 7
MDA-MB-231 xenograft; [3]
  Volume (cm^3) of tumours: 1.618 ± 0.518 cm^3
  Weight (g) of tumours: 0.94 ± 0.52 g
MDA-MB-231 xenograft; MDA-MB-231 xenograft, end of the 6th week, first series
  tumour-free animals: A tumour-free animal was found
MDA-MB-231 xenograft; [4]
  Inhibition %: 29%
  Tumour volume as control (%): 71%
MDA-MB-231 xenograft; [5]
  Inhibition %: 23.5%
  Tumour volume as control (%): 76.5%
MDA-MB-231 xenograft; [6]
  Inhibition %: 53%
  Tumour volume as control (%): 47%
MDA-MB-231 xenograft; [7]
  Inhibition %: 40%
  Tumour volume as control (%): 60%
MDA-MB-231 xenograft; [8]
  Tumour volume (cm^3): 0.17 cm^3
  Tumour volume as control (%): 101%
MDA-MB-231 xenograft; [9]
  Tumour volume (cm^3): 0.15 cm^3
  Tumour volume as control (%): 100%
MDA-MB-231 xenograft; [10]
  Tumour volume (cm^3): 0.24 cm^3
  Tumour volume as control (%): 105%
MDA-MB-231 xenograft; [11]
  Tumour volume (cm^3): 0.21 cm^3
  Tumour volume as control (%): 83%
MDA-MB-231 xenograft; [12]
  Tumour volume (cm^3): 0.3 cm^3
  Tumour volume as control (%): 72%
MDA-MB-231 xenograft; [13]
  Tumour volume (cm^3): 0.21 cm^3
  Tumour volume as control (%): 66%
MDA-MB-231 xenograft; [14]
  Tumour volume (cm^3): 0.36 cm^3
  Tumour volume as control (%): 65%
MDA-MB-231 xenograft; [15]
  Tumour volume (cm^3): 0.24 cm^3
  Tumour volume as control (%): 66%
MDA-MB-231 xenograft; [16]
  Tumour volume (cm^3): 0.35 cm^3
  Tumour volume as control (%): 53%
MDA-MB-231 xenograft; [17]
  Tumour volume (cm^3): 0.28 cm^3
  Tumour volume as control (%): 67%
MDA-MB-231 xenograft; [18]
  Tumour volume (cm^3): 0.46 cm^3
  Tumour volume as control (%): 49%
MDA-MB-231 xenograft; [19]
  Tumour volume (cm^3): 0.33 cm^3
  Tumour volume as control (%): 75%
MDA-MB-231 xenograft; [20]
  Tumour volume (cm^3): 0.58 cm^3
  Tumour volume as control (%): 47%
MDA-MB-231 xenograft; [21]
  Tumour volume (cm^3): 0.36 cm^3
  Tumour volume as control (%): 63%
MDA-MB-231 xenograft; [22]
  Tumour volume (cm^3): 0.75 cm^3
  Tumour volume as control (%): 59%
MXT mouse mammary tumour; [23]
  Inhibition %: 61%
  Tumour volume as control (%): 39%
MXT mouse mammary tumour; [24]
  Inhibition %: 49%
  Tumour volume as control (%): 51%
MXT mouse mammary tumour; day 9, 75 µg/day/animal s.c.
  Tumour volume (cm^3): 0.38 cm^3
  Tumour volume as control (%): 55%
MXT mouse mammary tumour; day 11, 75 µg/day/animal s.c.
  Tumour volume (cm^3): 0.74 cm^3
  Tumour volume as control (%): 41%
MXT mouse mammary tumour; day 13, 75 µg/day/animal s.c.
  Tumour volume (cm^3): 1.26 cm^3
  Tumour volume as control (%): 39%
MXT mouse mammary tumour; day 17, 75 µg/day/animal s.c.
  Tumour volume (cm^3): 2.43 cm^3
  Tumour volume as control (%): 46%
MXT mouse mammary tumour; day 18, 75 µg/day/animal s.c.
  Tumour volume (cm^3): 3.91 cm^3
  Tumour volume as control (%): 52%
MXT mouse mammary tumour; day 20, 75 µg/day/animal s.c.
  Tumour volume (cm^3): 4.74 cm^3
  Tumour volume as control (%): 51%
MXT mouse mammary tumour; day 24, 75 µg/day/animal s.c.
  Tumour volume (cm^3): 7.34 cm^3
  Tumour volume as control (%): 58%
MXT mouse mammary tumour; day 26, 75 µg/day/animal s.c.
  Tumour volume (cm^3): 9.03 cm^3
  Tumour volume as control (%): 65%
[1]
  decrease of the uterus cPgR level: 54%
